The test system of one experiment is M3S1 pre-messenger. The experiment can be described thus: In vitro splicing of M3S1 pre-messenger RNA (dependent on ESE recognized by SR ASF/SF2 protein). It counts as biochemical, human. The note with it: for M3S1 splicing inhibition: 10 μM, FIG. 2; for effect on M3S1 splicing: concentration not given. The method, then:
The compounds presented in Tables 1 and 2 below were tested in a concentration range of 1 μM, 10 μM and 100 μM, and were selected initially on the basis of their capacity to inhibit, in vitro, the splicing of two types of model pre-mRNAs.
The second type of M3S1 pre-messenger is derived from the human […] gene (Labourier, E. et al. (1999), Antagonism between RSF1 and SR proteins for both splice-site recognition in vitro and Drosophila development. Genes Dev. 13, 740-753) and its splicing is strictly dependent on an auxiliary ESE sequence recognized specifically by the SR ASF/SF2 protein. Conditions for the transcription, splicing and analysis of this pre-messenger's products are identical to those used for the MINX pre-messenger.

In experiment [1] the test system is M3S1 transcript splicing complexes. The experiment can be described thus: In vitro splicing-complex formation on M3S1 transcript. It counts as biochemical, human. The note with it: 50 μM; 30 minutes of incubation; FIG. 3. An excerpt: The activity of the products has also been tested in splicing-complex formation reactions in vitro (FIG. 3) as described in Pilch B. et al. (Specific inhibition of serine- and arginine-rich splicing factors, phosphorylation, spliceosome assembly, and splicing by the antitumor drug NB-506. Cancer Res. 2001. 61, 6876-6884).
M3S1 transcript splicing reactions in the presence of various compounds according to the invention performed under the same conditions as those described for FIG. 1 are stopped after 30 minutes of incubation by the addition of heparin and glycerol at a final concentration of 1 mg/ml and 15%, respectively.

Experiment [2] relates to M3S1-PDH pre-messenger RNA. The experiment can be described thus: Splicing of M3S1-PDH pre-messenger RNA (pyruvate dehydrogenase E1α subunit, mutated intron 7). It is filed as biochemical, human. The note with it: for M3S1-PDH splicing: FIG. 4B. An excerpt:
In this substrate the sequences corresponding to exon 7-intron 7-exon 8 of the gene coding for the pyruvate dehydrogenase E1α subunit (PDH E1α) are inserted downstream from the M3S1 sequence (M3S1-PDH, see FIG. 4A). Intron 7 of this transcript contains a point mutation which creates a high affinity SR hSC35 protein binding site. This mutation, which causes the loss of PDH E1α expression in patients suffering from Leigh syndrome (an encephalopathy in children), leads to the appearance of a cryptic site 46 nucleotides downstream from the authentic 5′ splicing site (FIG. 4A). This substrate, likely to give rise to two products, one with and one without the 46 nucleotides of PDH intron 7, is ideal for determining the specificity of the compounds with respect to the various ESE sequences present within the same transcript.
Compound C7 is thus an excellent inhibitor of defective splicing that is dependent on hSC35 ESE, but not on authentic splicing. This compound can thus be envisaged for treating patients suffering from this encephalopathy.

The next experiment has as its system GFP-ESE transgene. The experiment can be described thus: ESE-dependent splicing of GFP-ESE transgene mRNA in HeLa cells (RT-PCR). It is filed as cell-based, human. The note with it: 1 μM per FIG. 5 legend. An excerpt:
In order to test the efficiency of indole derivatives ex vivo, […] HeLa cell lines were established stably expressing a transgene corresponding to GFP whose sequence was interrupted by an ESE sequence flanked by two identical introns of the human […] gene described in Example 1 (see FIG. 5A).
To detect the messenger RNAs arising from the splicing of this gene, the RT-PCR technique was used with primers in the GFP sequence on each side of the ESE and the PCR products were analyzed on agarose gel.
In almost all the lines established, a single fragment of 250 base pairs (bp) was amplified by PCR (FIG. 5A, lanes 2 and 3) and it corresponds to an RNA messenger which included the ESE between the two GFP sequences.

For a further experiment, the system named is HIV. Put plainly: Inhibition of HIV multiplication in PMA-stimulated U1 cells (RT-PCR of viral transcripts). As to conditions: 2.5 μM; 24 h; U1 cells treated with 50 nM PMA; FIG. 6. It counts as cell-based. An excerpt: To this end, human […] cell line U1, which is chronically infected by HIV (Folks et al., 1988. Characterization of a promonocyte clone chronically infected with HIV and inducible by 13-phorbol-12-myristate acetate. J. Immunol., 140: 1117-1122) and which produces large quantities of virus after stimulation by PMA (phorbol myristate acetate), was used. As a result, this cell line constitutes an excellent model to mimic the transition between the latency phase and the viral production phase observed in patients infected by HIV.
The results of this experiment are presented in FIG. 6 in which U1 cells (5×10^5) were treated with 50 nM of PMA in the absence (FIG. 6, lane 1) or in the presence of 2.5 μM of compounds C47, C97, C58, C57, C92, C91, C90, C83, C73, C34, C51, C45, C13, C10, C44, C6, C7, C41, C50, C32, C2, C1, C29, C35 and C99 (FIG. 6, lanes 3-27, respectively). After 24 h of treatment, the virus's transcripts were amplified by RT-PCR using specific VIH, BSS and SJ4.7A primers (Jacquenet et al., 2001, A second exon splicing silencer within human immunodeficiency virus type 1 tat exon 2 represses splicing of Tat mRNA and binds protein hnRNP. H. J. Biol. Chem. 276: 40464-75) and a radioactive tracer (α-32P) CTP.

The target in the next experiment is T1, SRp55 (Homo sapiens, UniProt Q13247).
T1 sequence (Q13247 1-344): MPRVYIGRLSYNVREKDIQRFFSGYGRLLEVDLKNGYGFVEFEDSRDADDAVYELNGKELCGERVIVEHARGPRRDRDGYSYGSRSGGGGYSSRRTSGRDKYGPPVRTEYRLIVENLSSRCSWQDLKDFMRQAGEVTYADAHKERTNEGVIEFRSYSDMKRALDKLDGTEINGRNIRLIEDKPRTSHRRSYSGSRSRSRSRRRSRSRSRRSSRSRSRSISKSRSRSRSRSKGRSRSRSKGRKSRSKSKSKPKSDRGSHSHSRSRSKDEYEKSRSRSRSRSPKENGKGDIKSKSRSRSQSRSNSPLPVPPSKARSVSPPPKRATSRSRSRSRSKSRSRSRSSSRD
The experiment can be described thus: In vitro splicing results, Table 3: SRp55. It is filed as biochemical. As to conditions: summary of Table 3.

Molecules are shown by their SMILES.

As for `Cc1c2ccnc(Cl)c2cc2c3cn(C)ccc-3nc12` [C3, 10-chloro-2,6-dimethyl-2H-pyrido[3′,4′:4,5]pyrrolo[2,3-g]isoquinoline], the M3S1 splicing inhibition entry with M3S1 pre-messenger is “M3S1 splicing inhibition”. Moreover, the “inhibition of the formation of splicing complexes A and B on M3S1” value in experiment [1] was “inhibition of the formation of splicing complexes A and B”.

Consider `CC(=O)Oc1nccc2c(C)c3[nH]c4ccc(O)cc4c3cc12` [C4, 9-hydroxy-5-methyl-6H-pyrido[4,3-b]carbazol-1-yl acetic acid ester], for which the “effect on M3S1 splicing” value in the experiment on M3S1 pre-messenger is “inactive on M3S1”. Besides, in experiment [2], the M3S1-PDH splicing result is “has no effect”.

For `COc1ccc2[nH]c3c(C)c4ccncc4c(NCCCN(C)C)c3c2c1` [C7, N′(9-methoxy-5-methyl-6H-pyrido[4,3-b]carbazol-11-yl)-N,N-dimethyl-propane-1,3-diamine], the “effect on M3S1 splicing” value in the experiment with M3S1 pre-messenger is reported as “do not modify M3S1 splicing”. In experiment [2] (FIG. 4B lane 4), the “RNA species from normal PDH splicing” value is listed as “has no effect” and the “formation of RNA species arising from PDH splicing that include the 46 nucleotides of intron 7 (defective splicing dependent on hSC35 ESE)” value was “blocks the formation”.

Take `CCN(CC)CCCNc1nccc2c(C)c3[nH]c4ccc(OC)cc4c3cc12` [C8, N,N-diethyl-N′-(9-methoxy-5-methyl-6H-pyrido[4,3-b]carbazol-1-yl)-propane-1,3-diamine]: in experiment [2], the M3S1-PDH splicing entry is “Inhibition of M3S1-PDH”.

For the compound `COc1ccc2[nH]c3c(C)c4ccnc(NCCCN5CCN(CCCN)CC5)c4cc3c2c1` [C14], the M3S1 splicing inhibition entry in the experiment on M3S1 pre-messenger is “M3S1 splicing inhibition”. The “splicing profile of the GFP-ESE transgene (RT-PCR fragment without ESE)” value in the experiment on GFP-ESE transgene was “revealed a fragment of 194 bp”. In addition, in experiment [1], the “inhibition of the formation of splicing complexes A and B on M3S1” value was “inhibition of the formation of splicing complexes A and B”.

With `CCN(CC)CCC(C)Nc1nccc2c(C)c3c(cc12)c1cnccc1n3C` (stereo not shown) [C28, N-3-(5,6-dimethyl-5H-pyrido[3′,4′:4,5]pyrrolo[2,3-g]isoquinolin-10-yl)-N,N-1-diethyl-butane-1,3-diamine], the “splicing profile of the GFP-ESE transgene (RT-PCR fragment without ESE)” value in the experiment on GFP-ESE transgene is on record as “revealed a fragment of 194 bp”.

Consider `CCN(CC)CCNc1nccc2c(C)c3c(cc12)c1cc(OC)ccc1n3C` [C50, N,N-diethyl-N′-(9-methoxy-5,6-dimethyl-6H-pyrido[4,3-b]carbazol-1-yl)-ethane-1,2-diamine], for which the “inhibition of HIV multiplication (amplification of viral transcripts)” value with HIV is on record as “excellent inhibitors of HIV multiplication”. The “inhibit the activity of the SRp55 protein specifically” value against SRp55 is recorded as “inhibit the activity of the SRp55 protein specifically”.

For `CNCCCNc1ncc(C)c2[nH]c3ccc4cc(OC)ccc4c3c12` [C57, N-(3-methoxy-8-methyl-7H-benzo[e]pyrido[4,3-b]indol-11-yl)-N′-methyl-propane-1,3-diamine], the “inhibition of HIV multiplication (amplification of viral transcripts)” value in the experiment on HIV was “excellent inhibitors of HIV multiplication”. The “inhibit the activity of the SRp55 protein specifically” value against SRp55 was “inhibit the activity of the SRp55 protein specifically”.
